Values joined by “and” are separate entries in the source; they are usually repeats but may differ in a detail not shown here. Equal entries are not always repeated.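 Test compounds were applied to cells in 96-well plates for 48 hours at 5 doses. GI50 is the concentration that inhibits growth by half.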 Active and inactive are the calls of the source. Rule as the data show it: active = GI50 up to about 1.1 µM and inactive = higher.
Tests used:
Assay in all cases: NCI anticancer screen, dose series, 48 h
A498 = system: A498
A549 = system: A549
COLO 205 = system: COLO 205
DU-145 = system: DU-145
HCC 2998 = system: HCC 2998
HL-60 = system: HL-60
HOP-62 = system: HOP-62
HOP-92 = system: HOP-92
Hs-578T = system: Hs-578T
MDA-MB-231 = system: MDA-MB-231
MDA-MB-435 = system: MDA-MB-435
Malme-3M = system: Malme-3M
NCI-H460 = system: NCI-H460
NCI-H522 = system: NCI-H522
SF-539 = system: SF-539
SK-MEL-28 = system: SK-MEL-28
U-251 = system: U-251
UACC-257 = system: UACC-257
UO-31 = system: UO-31

Row | Compound | GI50 (A498) | GI50 (A549) | GI50 (COLO 205) | GI50 (DU-145) | GI50 (HCC 2998) | GI50 (HL-60) | GI50 (HOP-62) | GI50 (HOP-92) | GI50 (Hs-578T) | GI50 (MDA-MB-231) | GI50 (MDA-MB-435) | GI50 (Malme-3M) | GI50 (NCI-H460) | GI50 (NCI-H522) | GI50 (SF-539) | GI50 (SK-MEL-28) | GI50 (U-251) | GI50 (UACC-257) | GI50 (UO-31)
1 | O=C1CC(Br)c2c(Cl)sc(Cl)c21 (stereo unspecified) | 20.3 µM (inactive) | 18.3 µM (inactive) | 12.1 µM (inactive) | 17 µM (inactive) | 12 µM (inactive) | 2.13 µM (inactive) | 6.01 µM (inactive) | 15.1 µM (inactive) | 16.5 µM (inactive) | 9.98 µM (inactive) | 2.39 µM (inactive) | 12.1 µM (inactive) | 18.2 µM (inactive) | 17 µM (inactive) | 8.3 µM (inactive) | 13.6 µM (inactive) | 3.37 µM (inactive) | 4 µM (inactive) | 4.06 µM (inactive)
2 | CNC1C(=O)C(C)C(O)(C(CC(C)C(O)/C=C/C=C/CNC(=O)C(C)(C)C(O)\C(C)=C/C=C\C=C\Cc2cnc(C)o2)OC)C12C(=O)OC2C.CNC1C(=O)C(C)C(O)(C(CC(C)C(O)/C=C/C=C/CNC(=O)C(C)(C)C(O)\C(C)=C/C=C\C=C\Cc2cnc(C)o2)OC)C12C(=O)OC2COC (stereo unspecified) | 28.4 µM (inactive) | 0.78 µM (active) | 0.778 µM (active) | 31.5 µM (inactive) | 13.3 µM (inactive) | 0.635 µM (active) | 8.43 µM (inactive) | 2.72 µM (inactive) | 12.4 µM (inactive) | 26.9 µM (inactive) | 16 µM (inactive) | 9.04 µM (inactive) | 15.2 µM (inactive) | 0.565 µM (active) | 23.2 µM (inactive) | 23.1 µM (inactive) | 1.15 µM (inactive) | 0.188 µM (active) | 10.5 µM (inactive)
3 | CCN(CC)CCOC(c1cc(OC)ccc1OC)c1ccc2n1-c1ccccc1OC2 (stereo unspecified) | 11.8 µM (inactive) | 14 µM (inactive) | 5.42 µM (inactive) | 22.9 µM (inactive) | 5.31 µM (inactive) | 13.2 µM (inactive) | 16.4 µM (inactive) | 1.89 µM (inactive) | 13.7 µM (inactive) | 2.09 µM (inactive) | 10.5 µM (inactive) | 18.5 µM (inactive) | 12.4 µM (inactive) | 15.2 µM (inactive) |  | 15 µM (inactive) | 14.9 µM (inactive) | 16 µM (inactive) | 11 µM (inactive)
4 | O=C(c1ccc(O)c([N+](=O)[O-])c1)c1ccc(O)c([N+](=O)[O-])c1 | > 100 µM (inactive) | 89.9 µM (inactive) | > 100 µM (inactive) | > 100 µM (inactive) | > 100 µM (inactive) |  | > 100 µM (inactive) | 24 µM (inactive) | 46.3 µM (inactive) | > 100 µM (inactive) | 20.8 µM (inactive) | 37 µM (inactive) | > 100 µM (inactive) | > 100 µM (inactive) | 53.5 µM (inactive) | 47.2 µM (inactive) | > 100 µM (inactive) | 81.7 µM (inactive) | 66.2 µM (inactive)
5 | CCCCCCN(C(=O)Oc1ccccc1)C(C#N)c1ccccc1 (stereo unspecified) | > 100 µM (inactive) | > 100 µM (inactive) | > 100 µM (inactive) | > 100 µM (inactive) | > 100 µM (inactive) | > 100 µM (inactive) | > 100 µM (inactive) | > 100 µM (inactive) | > 100 µM (inactive) | > 100 µM (inactive) | > 100 µM (inactive) | > 100 µM (inactive) |  | > 100 µM (inactive) | > 100 µM (inactive) | > 100 µM (inactive) | > 100 µM (inactive) | > 100 µM (inactive) | > 100 µM (inactive)
6 | CC1(c2cccc(C(F)(F)F)c2)CC(c2cccc(C(F)(F)F)c2)=C(C#N)C(=C(C#N)C#N)N1 (stereo unspecified) | 18.1 µM (inactive) | 19.5 µM (inactive) | 14.6 µM (inactive) | 17.2 µM (inactive) | 17.2 µM (inactive) | 15.5 µM (inactive) | 17.1 µM (inactive) | 2.3 µM (inactive) | 17.3 µM (inactive) | 23 µM (inactive) | 18.1 µM (inactive) | 17.1 µM (inactive) | 19.3 µM (inactive) |  | 17.4 µM (inactive) | 16 µM (inactive) | 18.4 µM (inactive) | 15.9 µM (inactive) | 18.6 µM (inactive)
7 | CCn1cc(C(=O)O)c(=O)c2cc3c(cc21)S(=O)(=O)CC3 | > 100 µM (inactive) | > 100 µM (inactive) | > 100 µM (inactive) | > 100 µM (inactive) | > 100 µM (inactive) | > 100 µM (inactive) | > 100 µM (inactive) | > 100 µM (inactive) | > 100 µM (inactive) | > 100 µM (inactive) | > 100 µM (inactive) | > 100 µM (inactive) | > 100 µM (inactive) | > 100 µM (inactive) | > 100 µM (inactive) | > 100 µM (inactive) | 24.2 µM (inactive) | > 100 µM (inactive) | > 100 µM (inactive)
8 | ON[C@@H]1C=C[C@H](n2cnc3c(NC4CC4)ncnc32)C1 | > 100 µM (inactive) | > 100 µM (inactive) | > 100 µM (inactive) | > 100 µM (inactive) | > 100 µM (inactive) |  | > 100 µM (inactive) | > 100 µM (inactive) | > 100 µM (inactive) | > 100 µM (inactive) | > 100 µM (inactive) | > 100 µM (inactive) | > 100 µM (inactive) | > 100 µM (inactive) | > 100 µM (inactive) | > 100 µM (inactive) | > 100 µM (inactive) | > 100 µM (inactive) | > 100 µM (inactive)
9 | Cc1ccc(NC(=S)C#N)c(C)c1 | > 100 µM (inactive) | > 100 µM (inactive) | > 84.1 µM (inactive) | > 100 µM (inactive) | > 100 µM (inactive) | 20.5 µM (inactive) | > 100 µM (inactive) | 74.8 µM (inactive) | > 100 µM (inactive) | > 100 µM (inactive) | 56 µM (inactive) | 44.2 µM (inactive) | > 89.7 µM (inactive) | 46.7 µM (inactive) | > 100 µM (inactive) | 65.3 µM (inactive) | > 86.3 µM (inactive) | 63.2 µM (inactive) | 50 µM (inactive)
10 | C=C(Cl)C(=C)CCC(Cl)C(C)(C)Cl (stereo unspecified) | > 100 µM (inactive) | > 100 µM (inactive) | > 100 µM (inactive) | > 100 µM (inactive) | > 100 µM (inactive) | > 100 µM (inactive) | > 100 µM (inactive) | > 100 µM (inactive) | > 100 µM (inactive) | > 100 µM (inactive) | > 100 µM (inactive) | > 100 µM (inactive) | > 100 µM (inactive) | > 100 µM (inactive) | > 100 µM (inactive) | > 100 µM (inactive) | > 100 µM (inactive) | > 100 µM (inactive) | > 100 µM (inactive)
11 | NC(=O)N/N=C1/c2ccccc2-n2nccc21 | 38.7 µM (inactive) | 78.3 µM (inactive) | 67.1 µM (inactive) | > 100 µM (inactive) | 52.5 µM (inactive) | 8.59 µM (inactive) | 70.1 µM (inactive) | 64.7 µM (inactive) | 85.5 µM (inactive) | > 100 µM (inactive) | 57.4 µM (inactive) | > 100 µM (inactive) | 45.1 µM (inactive) | > 100 µM (inactive) | 48.5 µM (inactive) | > 100 µM (inactive) | > 100 µM (inactive) | > 100 µM (inactive) | 
12 | COC(=O)[C@H](Cc1ccccc1)NC(=O)[C@H](Cc1ccccc1)NC(=O)CN1C(=O)[C@@H]2C3C=CC(C3)[C@@H]2C1=O | 22.9 µM (inactive) and 16.8 µM (inactive) | 22 µM (inactive) and 21.1 µM (inactive) | 17.1 µM (inactive) and 15.8 µM (inactive) | 20.1 µM (inactive) and 17.9 µM (inactive) | 17.3 µM (inactive) and 16.7 µM (inactive) | 11 µM (inactive) | 19.7 µM (inactive) and 18.7 µM (inactive) | 18.3 µM (inactive) and 20.6 µM (inactive) | 19.1 µM (inactive) and 19.5 µM (inactive) | 17.3 µM (inactive) and 17 µM (inactive) | 15.3 µM (inactive) and 17.3 µM (inactive) |  | 21.2 µM (inactive) and 20.6 µM (inactive) | 16 µM (inactive) and 14.1 µM (inactive) | 18.7 µM (inactive) and 17.9 µM (inactive) | 19.3 µM (inactive) and 18.1 µM (inactive) | 16.4 µM (inactive) and 17.6 µM (inactive) | 17.6 µM (inactive) and 16.4 µM (inactive) | 23.3 µM (inactive) and 15.7 µM (inactive)
13 | CC(C)CC(N)C(=O)NC(C(=O)NC(CCCNC(=N)N)C(=O)NC(CS)C(=O)NC1CSCC(C(=O)NC(Cc2ccccc2)C(=O)NC(C(=O)NC(CCCNC(=N)N)C(=O)O)C(C)C)NC(=O)C2CCCN2C(=O)C(CCCCN)NC(=O)C2CCCN2C(=O)C2CCCN2C(=O)C(Cc2ccc(O)cc2)NC(=O)C(CO)NC(=O)C(CCCCN)NC(=O)C(C(C)O)NC(=O)C(Cc2c[nH]c3ccccc23)NC1=O)C(C)C (stereo unspecified) | > 25 µM (inactive) | > 25 µM (inactive) | > 25 µM (inactive) | > 25 µM (inactive) |  | > 25 µM (inactive) | > 25 µM (inactive) | > 25 µM (inactive) | > 25 µM (inactive) | > 25 µM (inactive) | > 25 µM (inactive) | > 25 µM (inactive) |  | > 25 µM (inactive) | > 25 µM (inactive) | > 25 µM (inactive) | > 25 µM (inactive) | > 25 µM (inactive) | > 25 µM (inactive)
14 | O=CN1CCN(C(=O)c2ccco2)C1=S | 16.5 µM (inactive) | 11.3 µM (inactive) | 10.1 µM (inactive) | 3.08 µM (inactive) |  | 3.46 µM (inactive) | 13.2 µM (inactive) | 4.12 µM (inactive) | 22 µM (inactive) | 17.3 µM (inactive) | 5.13 µM (inactive) | 11.3 µM (inactive) | 12.4 µM (inactive) | 3.67 µM (inactive) | 4.38 µM (inactive) | 15.9 µM (inactive) | 13.9 µM (inactive) | 12.1 µM (inactive) | 4.49 µM (inactive)
